Assay results published in patent US20180370912A1, “COMPOUNDS AND METHODS FOR TREATING DISEASES MEDIATED BY PROTEIN DISULFIDE ISOMERASE” (Beth Israel Deaconess Medical Center, Inc., priority 2017, published 2018).
Bridge positions count the residues as written; N and C are the ends. Square brackets hold non-standard residues; d marks the D form. Peptide text beside a SMILES is read from it. * marks the point of attachment. Ileψ(thiazoline)Cys = CC[C@H](C)[C@H](N)C1=N[C@H](C(=O)*)CS1; dOrn = NCCC[C@@H](N)C(=O)O

Legend:
ERp5 [1] = target: T1, ERp5 (Homo sapiens, UniProt Q15084); experiment: Maleimide-polyethylene glycol-2-biotin (MPB) binding; conditions: 150 μM inhibitor, FIG. 2c, FIG. 8
T1 construct: recombinant His-tagged full-length ERp5, ERp72 and PDI domain fragments; His; made in house; host or cells: Escherichia coli Origami B (DE3), pET-15b
T1 sequence (Q15084 20-440): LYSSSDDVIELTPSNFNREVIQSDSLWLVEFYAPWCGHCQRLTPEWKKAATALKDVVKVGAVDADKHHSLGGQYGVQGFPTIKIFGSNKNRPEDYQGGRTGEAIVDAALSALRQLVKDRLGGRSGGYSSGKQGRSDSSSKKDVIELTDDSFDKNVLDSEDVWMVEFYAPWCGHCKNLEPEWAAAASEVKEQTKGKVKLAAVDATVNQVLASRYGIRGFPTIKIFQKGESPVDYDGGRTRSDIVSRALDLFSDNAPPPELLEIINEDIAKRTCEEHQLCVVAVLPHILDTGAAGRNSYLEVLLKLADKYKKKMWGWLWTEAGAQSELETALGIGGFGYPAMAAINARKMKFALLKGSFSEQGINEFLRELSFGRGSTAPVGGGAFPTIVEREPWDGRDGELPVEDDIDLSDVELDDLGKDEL
Description: (§1) Maleimide-Polyethanol glycol-2-Biotin (MPB) binding experiments were performed in a reaction volume of 37.5 μL with 5 μM of thiol isomerase or bovine serum albumin (BSA) in Tris-buffered saline (TBS), in the presence and absence of 1 mM of N-ethylmaleimide (NEM) or bacitracin, and 150 μM of the mentioned other inhibitors. The reaction mixture was incubated at 37° C. for 1 hour. Subsequently, the reaction mixtures were incubated with 25 μM of MPB. The labeling was performed for 20 minutes at 25° C. A total of 12.5 μL of 4× Laemmli Sample Buffer with 5% β-mercaptoethanol was added to each of the samples, followed by heating at 95° C. for 10 minutes. From each sample, 10 μL was loaded on a 12% SDS-PAGE gel, followed by transfer on a nitrocellulose membrane. After blocking the membrane with TBS-T containing 5% BSA for one hour, the membrane was incubated with a 1:2000 dilution of Cy5-tagged Streptavidin for an hour in the dark. Detection of the immunoblots was performed using ImageQuant LAS 4000 and analysis was performed using ImageQuant TL software.

thioredoxin [2] = target: T2, thioredoxin (Homo sapiens, UniProt P10599); experiment: as above; conditions: 150 μM inhibitor, FIG. 2c, FIG. 8
T2 sequence (P10599 1-105): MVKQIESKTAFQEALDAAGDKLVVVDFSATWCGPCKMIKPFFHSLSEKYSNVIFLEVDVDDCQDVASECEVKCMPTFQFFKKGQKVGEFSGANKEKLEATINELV
Description: as §1

ERp57 [3] = target: T3, ERp57 (Homo sapiens, UniProt P30101); experiment: as above; conditions: 150 μM inhibitor, FIG. 2c, FIG. 8
T3 construct: FLAG; made in house; host or cells: Escherichia coli Origami B (DE3), pET-15b
T3 sequence (P30101 25-505): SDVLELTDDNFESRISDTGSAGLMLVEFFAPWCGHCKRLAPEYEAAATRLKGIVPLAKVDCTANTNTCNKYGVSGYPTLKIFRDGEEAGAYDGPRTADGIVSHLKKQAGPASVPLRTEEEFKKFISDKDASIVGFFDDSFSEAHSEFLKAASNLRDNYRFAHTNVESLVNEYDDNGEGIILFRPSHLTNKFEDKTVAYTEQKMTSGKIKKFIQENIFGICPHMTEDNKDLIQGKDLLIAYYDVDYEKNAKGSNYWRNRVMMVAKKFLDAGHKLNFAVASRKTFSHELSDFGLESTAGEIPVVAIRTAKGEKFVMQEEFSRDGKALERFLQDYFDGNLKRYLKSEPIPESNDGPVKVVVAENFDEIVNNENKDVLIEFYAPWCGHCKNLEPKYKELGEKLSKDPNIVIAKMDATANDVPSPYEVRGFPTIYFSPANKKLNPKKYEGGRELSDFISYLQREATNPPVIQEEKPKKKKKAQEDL
Description: as §1

PDI [4] = target: T4, PDI (Homo sapiens, UniProt P07237); experiment: Di-eosin-GSSG disulfide reductase assay; format: biochemical; conditions: for change of apparent KM in the di-eosin-GSSG assay of PDI reductase activity / change of apparent kcat in the di-eosin-GSSG assay of PDI reductase activity: FIG. 6d
T4 construct: FLAG; made in house; host or cells: Escherichia coli Origami B (DE3), pET-15b
Description: (§2) The probe di-eosin glutathione disulfide, di-eosin-GSSG, was prepared as previously described in Raturi, A., Vacratsis, P. O., Seslija, D., Lee, L. & Mutus, B., Biochem J 391, 351-357 (2005). Reductase activity of purified thiol isomerases and PDI domains was monitored in a 96-well fluorescence plate format. PDI, AGHA-PDI, ERpS, ERp57, ERp72 and PDI domains were assayed at 50 nM in the presence or absence of the indicated small molecules, peptides or cathepsin G. The assay included 100 mM potassium phosphate (pH 7.4) containing 2 mM EDTA, 5 μM DTT and 150 nM of the di-eosin GSSG probe. The increase in fluorescence was determined for 20 minutes by excitation at 520 nm and emission at 550 nm in a Synergy Biotek 4. The reduction of 150 nM di-eosin-GSSG by 5 μM DTT in the presence or absence of mentioned small molecules, peptides or proteins served as a negative control.
Michaelis Menten analysis was assayed using PDI at 20 nM and small molecules, peptides or cathepsin G at concentrations causing maximal augmentation under similar buffer conditions as described above. 8-point response curves were generated using a range of different di-eosin-GSSG concentrations (50-5000 nM). Enzyme kinetics analysis was performed using Graphpad Prism 5.0.

thrombus formation = conditions: literature; cited from earlier work
ERp5 [5] = target: T1, ERp5; experiment: Insulin reductase assay, thiol isomerase selectivity; format: biochemical; conditions: 10-fold IC50, FIG. 2
Description: (§3) The thiol isomerase-catalyzed reduction of insulin was assayed by measuring the increase in turbidity as detected at an optical density (OD) of 650 nm using a Spectramax M3 (Molecular Devices, Sunnyvale, Calif.). The validation assay consisted of 175 nM of PDI in a solution containing 100 mM potassium phosphate (pH 7.4) containing 0.2 mM bovine insulin, 2 mM EDTA, and 0.3 mM DTT (all purchased from Sigma Aldrich, St. Louis, Mo.), inhibitors were used at the concentrations indicated. The reaction was performed at 25° C. for one hour and thirty minutes. For assays of thiol isomerase selectivity, 11 nM PDI, ERp57 or Thioredoxin, or 33 nM ERpS were assayed in similar buffer conditions as described above and inhibitors were used at the indicated concentration. The reaction was performed at 37° C. for forty-five minutes. For assays of isolated domains studies, 400 nM protein was used, except for a, a′ and ab, in which 800 nM protein was used. The assay was performed in similar buffer conditions as described above. Bepristat 2a and N-(2,4-Dimethoxyphenyl)-N-(1-oxo-2-propyn-1-yl)-2-(2-thienyl)glycyl-glycine ethyl ester (PACMA-31) were used at a final concentration of 15 μM in these studies.

thioredoxin [6] = target: T2, thioredoxin; experiment: as above; format: biochemical; conditions: 10-fold IC50, FIG. 2
Description: as §3

ERp57 [7] = target: T3, ERp57; experiment: as above; format: biochemical; conditions: FIG. 2
Description: as §3

full-length PDI = target: T5, full-length PDI (Homo sapiens, UniProt P07237); experiment: Small-angle X-ray scattering (SAXS); conditions: PDI complexed with compound; full-length oxidized PDI 40.0 Å, FIG. 5d
T5 construct: FLAG; made in house; host or cells: Escherichia coli Origami B (DE3), pET-15b
Description: Further purification of full-length PDI was achieved by gel filtration. PDI (1.5, 3.0 and 4.5 mg/mL) was dialyzed against 20 mM Tris, 150 mM NaCl, 5% glycerol (pH: 8.0) containing 0.5 mM bepristat 1b or 2b or DMSO control at 4° C. overnight. Evaluation by SAXS was performed on the SIBYLS beamline in the Advanced Light Source using a high throughput data collection method.

ERp72 = target: T6, ERp72 (Homo sapiens, UniProt P13667); experiment: Di-eosin-GSSG disulfide reductase assay; format: biochemical
T6 construct: recombinant His-tagged full-length ERp5, ERp72 and PDI domain fragments; His; made in house; host or cells: Escherichia coli Origami B (DE3), pET-15b
T6 sequence (P13667 21-645): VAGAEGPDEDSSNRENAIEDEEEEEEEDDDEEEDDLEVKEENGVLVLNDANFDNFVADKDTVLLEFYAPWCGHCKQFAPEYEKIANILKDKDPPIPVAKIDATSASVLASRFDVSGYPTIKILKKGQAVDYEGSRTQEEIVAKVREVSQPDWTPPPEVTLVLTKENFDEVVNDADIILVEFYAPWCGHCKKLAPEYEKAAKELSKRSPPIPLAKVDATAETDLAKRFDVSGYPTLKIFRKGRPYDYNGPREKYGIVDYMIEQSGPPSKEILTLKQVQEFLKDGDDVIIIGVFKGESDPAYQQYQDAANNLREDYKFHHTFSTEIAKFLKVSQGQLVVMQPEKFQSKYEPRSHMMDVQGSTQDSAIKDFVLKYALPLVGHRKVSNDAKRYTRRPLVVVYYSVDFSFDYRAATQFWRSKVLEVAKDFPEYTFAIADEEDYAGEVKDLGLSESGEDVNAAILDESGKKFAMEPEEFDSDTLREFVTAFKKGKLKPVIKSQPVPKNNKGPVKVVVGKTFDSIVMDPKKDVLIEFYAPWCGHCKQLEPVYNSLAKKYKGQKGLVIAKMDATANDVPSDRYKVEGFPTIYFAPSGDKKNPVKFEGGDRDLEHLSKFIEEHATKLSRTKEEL
Description: as §2

ERp5 [8] = target: T1, ERp5; experiment: Di-eosin-GSSG disulfide reductase assay; format: biochemical
Description: as §2

ERp57 [9] = target: T3, ERp57; experiment: Di-eosin-GSSG disulfide reductase assay; format: biochemical
Description: as §2

PDI [10] = target: T4, PDI; conditions: cited from earlier work

T4 sequence (P07237 18-508): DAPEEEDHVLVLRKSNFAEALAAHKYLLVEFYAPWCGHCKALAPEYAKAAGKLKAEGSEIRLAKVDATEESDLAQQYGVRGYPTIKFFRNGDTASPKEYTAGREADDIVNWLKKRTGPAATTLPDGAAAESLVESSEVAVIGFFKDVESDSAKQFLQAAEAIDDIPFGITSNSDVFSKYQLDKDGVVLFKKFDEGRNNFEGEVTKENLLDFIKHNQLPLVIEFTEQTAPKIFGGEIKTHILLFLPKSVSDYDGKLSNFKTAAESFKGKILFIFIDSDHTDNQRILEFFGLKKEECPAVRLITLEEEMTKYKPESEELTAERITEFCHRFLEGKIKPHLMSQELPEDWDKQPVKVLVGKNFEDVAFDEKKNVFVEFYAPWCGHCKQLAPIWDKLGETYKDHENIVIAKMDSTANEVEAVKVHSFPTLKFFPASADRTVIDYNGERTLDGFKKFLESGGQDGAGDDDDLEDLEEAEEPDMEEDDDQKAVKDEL
T5 sequence (P07237 18-508): as above

Compound | cleavage of di-eosin-GSSG probe by PDI (reductase activity at catalytic cysteines) (PDI [4]) | change of apparent KM in the di-eosin-GSSG assay of PDI reductase activity (PDI [4]) | cleavage of di-eosin-GSSG by ERp72 (catalytic activity) (ERp72) | cleavage of di-eosin-GSSG by ERp5 (catalytic activity) (ERp5 [8]) | cleavage of di-eosin-GSSG by ERp57 (catalytic activity) (ERp57 [9]) | change of apparent kcat in the di-eosin-GSSG assay of PDI reductase activity (PDI [4]) | also measured
CC[C@H](C)[C@H](N)C1=N[C@H](C(=O)N[C@@H](CC(C)C)C(=O)N[C@H](CCC(=O)O)C(=O)N[C@H](C(=O)N[C@H]2CCCCNC(=O)[C@H](CC(N)=O)NC(=O)[C@@H](CC(=O)O)NC(=O)[C@H](Cc3cnc[nH]3)NC(=O)[C@@H](Cc3ccccc3)NC(=O)[C@H]([C@@H](C)CC)NC(=O)[C@@H](CCCN)NC2=O)[C@@H](C)CC)CS1 [bacitracin] ({Ileψ(thiazoline)Cys}-L[dE]IK[dOrn]I[dF]H[dD]N; lactam 4-C) | blocked PDI-mediated cleavage of di-eosin-GSSG |  |  |  |  |  | reaction of MPB with the catalytic cysteines of ERp5 (ERp5 [1]): interfered with the reaction of maleimide-polyethylene glycol-2-biotin (MPB); reaction of MPB with the catalytic cysteines of thioredoxin (thioredoxin [2]): interfered with the reaction of maleimide-polyethylene glycol-2-biotin (MPB); reaction of MPB with the catalytic cysteines of ERp57 (ERp57 [3]): interfered with the reaction of maleimide-polyethylene glycol-2-biotin (MPB); thrombus formation in vivo (thrombus formation): inhibits thrombus formation in vivo; inhibition of reductase activity of ERp5 (ERp5 [5]): showed activity against all thiol isomerases tested; inhibition of reductase activity of thioredoxin (thioredoxin [6]): showed activity against all thiol isomerases tested; inhibition of reductase activity of ERp57 (ERp57 [7]): showed activity against all thiol isomerases tested
CCOC(=O)c1c(CNCCN(CC)CC)n(-c2ccccc2)c2cc(Br)c(O)cc12 [bepristat 2b] |  |  |  |  |  |  | gyration radius (Rg) of PDI (full-length PDI): 35.9 Å
C[C@H](N)C(=O)NCC(=O)N[C@H]1CSSC[C@@H](C(=O)O)NC(=O)[C@H](CO)NC(=O)[C@H]([C@@H](C)O)NC(=O)[C@H](Cc2ccccc2)NC(=O)[C@H]([C@@H](C)O)NC(=O)[C@H](CCCCN)NC(=O)[C@H](Cc2c[nH]c3ccccc23)NC(=O)[C@H](Cc2ccccc2)NC(=O)[C@H](Cc2ccccc2)NC(=O)[C@H](CC(N)=O)NC(=O)[C@H](CCCCN)NC1=O [somatostatin, reference compound] |  | decreased the apparent KM |  |  |  |  | 
cathepsin G: a protein substrate of PDI | elicits enhanced reductase activity | decreased the apparent KM | augmented the catalytic activity of ERp72 | inhibited the catalytic activity of ERp5 and ERp57 to varying degrees | inhibited the catalytic activity of ERp5 and ERp57 to varying degrees | None of them altered the apparent kcat | 
mastoparan [reference compound] | enhanced the ability of PDI to cleave di-eosin-GSSG in a dose-dependent manner | decreased the apparent KM | augmented the catalytic activity of ERp72 | inhibited the catalytic activity of ERp5 and ERp57 to varying degrees | inhibited the catalytic activity of ERp5 and ERp57 to varying degrees | None of them altered the apparent kcat | PDI activity in RNase refolding assay (PDI [10]): inhibits PDI activity in an RNase refolding assay
